Data as given in ChEMBL document CHEMBL1201862, “PubChem BioAssay data set” (2004).
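Compound exposure: 48 hours, 5 concentrations, 96-well plates. Abbreviation: GI50, concentration required for 50% inhibition of growth.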 Calls of active or inactive are those of the source. Cut-off read from the data, not from the text of the source: active = GI50 up to about 1.1 µM and inactive = higher.

Key:
Test in all cases: NCI-60 cell line screen, 48 h
U-251 = test system: U-251
SK-MEL-28 = test system: SK-MEL-28
SNB-75 = test system: SNB-75
HT-29 = test system: HT-29
M14 = test system: M14
OVCAR-5 = test system: OVCAR-5
MDA-MB-435 = test system: MDA-MB-435
MCF7 = test system: MCF7
KM12 = test system: KM12
ACHN = test system: ACHN
A498 = test system: A498
HOP-92 = test system: HOP-92
NCI-H460 = test system: NCI-H460
SNB-19 = test system: SNB-19
CCRF-CEM = test system: CCRF-CEM
IGROV-1 = test system: IGROV-1
MDA-N = test system: MDA-N
UO-31 = test system: UO-31
NCI-H226 = test system: NCI-H226
OVCAR-4 = test system: OVCAR-4
SK-OV-3 = test system: SK-OV-3
SN12C = test system: SN12C
SK-MEL-2 = test system: SK-MEL-2
EKVX = test system: EKVX
SW-620 = test system: SW-620
NCI-H522 = test system: NCI-H522
OVCAR-8 = test system: OVCAR-8
SF-268 = test system: SF-268
SR = test system: SR
NCI/ADR-RES = test system: NCI/ADR-RES
HCC 2998 = test system: HCC 2998
RXF 393 = test system: RXF 393
MOLT-4 = test system: MOLT-4
CAKI-1 = test system: CAKI-1
Hs-578T = test system: Hs-578T
K562 = test system: K562
SF-295 = test system: SF-295
UACC-62 = test system: UACC-62
COLO 205 = test system: COLO 205
NCI-H23 = test system: NCI-H23
A549 = test system: A549
SK-MEL-5 = test system: SK-MEL-5
HCT-116 = test system: HCT-116
BT-549 = test system: BT-549
LOX IMVI = test system: LOX IMVI
Malme-3M = test system: Malme-3M
RPMI-8226 = test system: RPMI-8226
HOP-62 = test system: HOP-62
TK-10 = test system: TK-10
T47D = test system: T47D
OVCAR-3 = test system: OVCAR-3
MDA-MB-231 = test system: MDA-MB-231
DU-145 = test system: DU-145
PC-3 = test system: PC-3
HCT-15 = test system: HCT-15
SF-539 = test system: SF-539
HL-60 = test system: HL-60
UACC-257 = test system: UACC-257
786-0 = test system: 786-0

## CC(=O)Nc1ccc2[nH]c(C(=O)N3CC(CCl)c4c3cc(N)c3ccccc43)cc2c1 (stereo not given)
U-251
  GI50: 14.3 nM (active)
SK-MEL-28
  GI50: 16.1 nM (active)
SNB-75
  GI50: < 10 nM (active)
HT-29
  GI50: < 12.7 nM (active)
M14
  GI50: 16.7 nM (active)
OVCAR-5
  GI50: < 17.9 nM (active)
MDA-MB-435
  GI50: 14.7 nM (active)
MCF7
  GI50: 10.7 nM (active)
KM12
  GI50: < 10 nM (active)
ACHN
  GI50: < 10 nM (active)
A498
  GI50: 17.6 nM (active)
HOP-92
  GI50: < 19.1 nM (active)
NCI-H460
  GI50: < 10 nM (active)
SNB-19
  GI50: < 21.7 nM (active)
CCRF-CEM
  GI50: < 10 nM (active)
IGROV-1
  GI50: 14.3 nM (active)
MDA-N
  GI50: 17.7 nM (active)
UO-31
  GI50: 14 nM (active)
NCI-H226
  GI50: < 13.5 nM (active)
OVCAR-4
  GI50: < 10 nM (active)
SK-OV-3
  GI50: 17.4 nM (active)
SN12C
  GI50: 11.8 nM (active)
SK-MEL-2
  GI50: < 14.3 nM (active)
EKVX
  GI50: < 14.8 nM (active)
SW-620
  GI50: 11.8 nM (active)
NCI-H522
  GI50: < 10 nM (active)
OVCAR-8
  GI50: < 13.3 nM (active)
SF-268
  GI50: < 10 nM (active)
SR
  GI50: < 10 nM (active)
NCI/ADR-RES
  GI50: 18.2 nM (active)
HCC 2998
  GI50: < 10 nM (active)
RXF 393
  GI50: < 10 nM (active)
MOLT-4
  GI50: < 11.5 nM (active)
CAKI-1
  GI50: 12.9 nM (active)
Hs-578T
  GI50: < 10 nM (active)
K562
  GI50: < 16.3 nM (active)
SF-295
  GI50: 13.5 nM (active)
UACC-62
  GI50: 10.1 nM (active)
COLO 205
  GI50: 13.9 nM (active)
NCI-H23
  GI50: 10.2 nM (active)
A549
  GI50: 12.8 nM (active)
SK-MEL-5
  GI50: 11.5 nM (active)
HCT-116
  GI50: 13.7 nM (active)
BT-549
  GI50: < 31.2 nM (active)
LOX IMVI
  GI50: < 11.5 nM (active)
Malme-3M
  GI50: < 10 nM (active)
RPMI-8226
  GI50: < 17.1 nM (active)
HOP-62
  GI50: < 15.2 nM (active)
TK-10
  GI50: < 15.7 nM (active)
T47D
  GI50: < 16.4 nM (active)
OVCAR-3
  GI50: 18.9 nM (active)
MDA-MB-231
  GI50: < 23.7 nM (active)
DU-145
  GI50: < 10 nM (active)
PC-3
  GI50: < 16 nM (active)
HCT-15
  GI50: 26.7 nM
SF-539
  GI50: 12.9 nM (active)
HL-60
  GI50: < 10 nM (active)
UACC-257
  GI50: 17.2 nM (active)

## COc1cccc(OC)c1C1ON=C(c2ccccc2)N1C12CC3CC(CC(C3)C1)C2 (stereo not given)
U-251
  GI50: 30100 nM (inactive)
SK-MEL-28
  GI50: > 100000 nM (inactive)
SNB-75
  GI50: 20700 nM (inactive)
HT-29
  GI50: > 100000 nM (inactive)
M14
  GI50: 78000 nM (inactive)
OVCAR-5
  GI50: 46200 nM (inactive)
MDA-MB-435
  GI50: > 100000 nM (inactive)
MCF7
  GI50: > 100000 nM (inactive)
KM12
  GI50: > 100000 nM (inactive)
ACHN
  GI50: 35300 nM (inactive)
A498
  GI50: > 100000 nM (inactive)
HOP-92
  GI50: 10900 nM (inactive)
NCI-H460
  GI50: > 100000 nM (inactive)
SNB-19
  GI50: 13100 nM (inactive)
IGROV-1
  GI50: > 100000 nM (inactive)
MDA-N
  GI50: > 100000 nM (inactive)
UO-31
  GI50: > 100000 nM (inactive)
NCI-H226
  GI50: > 100000 nM (inactive)
SK-OV-3
  GI50: 38100 nM (inactive)
SN12C
  GI50: > 100000 nM (inactive)
SK-MEL-2
  GI50: 64000 nM (inactive)
EKVX
  GI50: > 100000 nM (inactive)
SW-620
  GI50: > 100000 nM (inactive)
NCI-H522
  GI50: 31000 nM (inactive)
OVCAR-8
  GI50: > 100000 nM (inactive)
SF-268
  GI50: > 100000 nM (inactive)
SR
  GI50: 5920 nM (inactive)
NCI/ADR-RES
  GI50: > 100000 nM (inactive)
HCC 2998
  GI50: > 100000 nM (inactive)
RXF 393
  GI50: 1200 nM (inactive)
786-0
  GI50: 42100 nM (inactive)
MOLT-4
  GI50: 84500 nM (inactive)
CAKI-1
  GI50: > 100000 nM (inactive)
Hs-578T
  GI50: 57700 nM (inactive)
K562
  GI50: > 100000 nM (inactive)
SF-295
  GI50: > 100000 nM (inactive)
UACC-62
  GI50: > 100000 nM (inactive)
COLO 205
  GI50: > 100000 nM (inactive)
NCI-H23
  GI50: > 100000 nM (inactive)
A549
  GI50: 64300 nM (inactive)
SK-MEL-5
  GI50: 27300 nM (inactive)
HCT-116
  GI50: 51200 nM (inactive)
BT-549
  GI50: > 100000 nM (inactive)
LOX IMVI
  GI50: > 100000 nM (inactive)
Malme-3M
  GI50: 38600 nM (inactive)
RPMI-8226
  GI50: 4410 nM (inactive)
HOP-62
  GI50: 80900 nM (inactive)
TK-10
  GI50: 36600 nM (inactive)
T47D
  GI50: 8300 nM (inactive)
OVCAR-3
  GI50: > 100000 nM (inactive)
MDA-MB-231
  GI50: > 100000 nM (inactive)
DU-145
  GI50: > 100000 nM (inactive)
PC-3
  GI50: 66500 nM (inactive)
HCT-15
  GI50: > 100000 nM
SF-539
  GI50: > 100000 nM (inactive)
HL-60
  GI50: 1870 nM (inactive)
UACC-257
  GI50: > 100000 nM (inactive)
